Calls of active or inactive are those of the source.
Tests used:
[1] = target: T1, High affinity choline transporter 1 (Homo sapiens, UniProt Q9GZV3); experiment: human choline transporter blockers, potency – cell-based, 5-point CRC, membrane potential dye, dose response (AID 504840); assay type: functional
T1 sequence (Q9GZV3 whole entry): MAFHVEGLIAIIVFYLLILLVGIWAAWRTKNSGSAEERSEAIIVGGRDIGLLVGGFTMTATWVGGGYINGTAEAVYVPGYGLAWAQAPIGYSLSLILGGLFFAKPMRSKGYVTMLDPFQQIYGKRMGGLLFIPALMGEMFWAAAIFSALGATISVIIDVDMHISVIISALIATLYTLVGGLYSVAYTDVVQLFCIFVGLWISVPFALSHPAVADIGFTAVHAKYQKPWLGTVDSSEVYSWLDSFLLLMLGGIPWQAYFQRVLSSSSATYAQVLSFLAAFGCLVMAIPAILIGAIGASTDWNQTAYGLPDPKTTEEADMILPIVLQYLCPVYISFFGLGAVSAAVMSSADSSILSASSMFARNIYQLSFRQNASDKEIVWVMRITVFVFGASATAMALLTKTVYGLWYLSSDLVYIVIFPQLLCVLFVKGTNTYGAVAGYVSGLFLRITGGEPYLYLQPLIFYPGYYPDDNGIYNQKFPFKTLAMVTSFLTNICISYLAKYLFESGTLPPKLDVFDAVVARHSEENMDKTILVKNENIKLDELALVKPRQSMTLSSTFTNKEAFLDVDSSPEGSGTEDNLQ

[2] = target: T2, Coagulation factor XII (Homo sapiens, UniProt P00748); assay type: functional;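 further: activated factor XIIa alpha cleaving a fluorogenic AMC peptide substrate; inhibitor potency from loss of enzyme activity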
T2 sequence (P00748 whole entry): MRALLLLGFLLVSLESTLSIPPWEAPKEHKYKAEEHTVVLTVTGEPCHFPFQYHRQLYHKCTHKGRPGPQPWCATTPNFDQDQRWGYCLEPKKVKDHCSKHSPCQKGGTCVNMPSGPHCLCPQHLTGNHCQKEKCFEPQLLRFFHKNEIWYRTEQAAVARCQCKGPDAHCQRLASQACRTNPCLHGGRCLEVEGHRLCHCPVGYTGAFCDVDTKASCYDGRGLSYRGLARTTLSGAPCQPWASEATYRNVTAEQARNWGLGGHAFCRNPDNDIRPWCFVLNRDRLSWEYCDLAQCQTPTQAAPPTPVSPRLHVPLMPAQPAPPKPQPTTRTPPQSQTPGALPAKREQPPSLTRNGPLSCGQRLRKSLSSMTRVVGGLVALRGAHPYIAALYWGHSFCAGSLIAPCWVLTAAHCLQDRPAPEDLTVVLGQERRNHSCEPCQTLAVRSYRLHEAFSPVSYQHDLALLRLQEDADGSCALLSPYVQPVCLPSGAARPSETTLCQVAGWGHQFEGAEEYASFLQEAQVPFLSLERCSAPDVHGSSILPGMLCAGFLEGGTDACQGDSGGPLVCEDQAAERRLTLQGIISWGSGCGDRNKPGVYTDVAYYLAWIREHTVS

[3] = target: T3, Alkaline phosphatase, tissue-nonspecific isozyme (Homo sapiens, UniProt P05186); experiment: potency against alkaline phosphatase TNAP – biochemical, luminescent, dose response, SAR follow-up (AID 1056)
T3 sequence (P05186 whole entry): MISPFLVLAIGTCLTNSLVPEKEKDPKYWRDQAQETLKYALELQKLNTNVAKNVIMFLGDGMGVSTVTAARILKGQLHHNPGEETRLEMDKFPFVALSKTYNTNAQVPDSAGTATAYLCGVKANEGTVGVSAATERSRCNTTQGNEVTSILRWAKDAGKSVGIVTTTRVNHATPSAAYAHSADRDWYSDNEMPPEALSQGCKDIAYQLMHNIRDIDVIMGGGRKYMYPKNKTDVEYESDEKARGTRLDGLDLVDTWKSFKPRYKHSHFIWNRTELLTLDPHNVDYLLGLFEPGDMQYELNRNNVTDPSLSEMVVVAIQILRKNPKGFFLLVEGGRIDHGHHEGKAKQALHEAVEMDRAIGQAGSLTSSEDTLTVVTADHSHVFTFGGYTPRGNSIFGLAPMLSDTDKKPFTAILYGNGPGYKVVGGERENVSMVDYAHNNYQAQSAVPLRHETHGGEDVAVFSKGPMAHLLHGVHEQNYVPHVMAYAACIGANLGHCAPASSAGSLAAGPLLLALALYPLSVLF

[4] = target: Glyceraldehyde-3-phosphate dehydrogenase (Homo sapiens, UniProt P04406)
Glyceraldehyde-3-phosphate dehydrogenase, sequence (P04406 whole entry): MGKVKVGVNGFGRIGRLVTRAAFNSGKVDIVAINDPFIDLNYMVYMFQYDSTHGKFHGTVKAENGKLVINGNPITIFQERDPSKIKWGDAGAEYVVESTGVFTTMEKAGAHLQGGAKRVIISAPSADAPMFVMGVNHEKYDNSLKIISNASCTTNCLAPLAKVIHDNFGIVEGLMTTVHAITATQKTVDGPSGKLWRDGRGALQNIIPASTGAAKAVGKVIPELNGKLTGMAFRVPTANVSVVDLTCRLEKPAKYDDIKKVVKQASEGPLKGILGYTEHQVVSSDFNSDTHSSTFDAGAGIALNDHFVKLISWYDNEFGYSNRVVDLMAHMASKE

[5] = viability of PTEN-deleted HCT116 cells – cell-based, HCT116 PTEN knockout, dose response (AID 1047); assay type: functional;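 further: HCT116 colon tumor cells with PTEN knocked out; cells exposed to compound for 60 hours before readout; potency for loss of cell viability measured by luminescence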
[6] = viability of HCT116 lacking mutant beta-catenin – cell-based, human colon tumor, dose response (AID 1045); assay type: functional;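 further: HCT116 colon tumor cells with beta catenin knocked out; cells exposed to compound for 60 hours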
[7] = viability loss in THP-1 monocytes – THP-1 cells, cytotoxicity control for Vif-APOBEC3G degradation inhibitor project, dose response (AID 1117359); assay type: functional; settings: THP-1
[8] = system: HEK293; experiment: inhibition of NOD1-driven NF-kB reporter – cell-based, luminescence, uHTS, primary screen (AID 1578); assay type: functional; settings: Homo sapiens
[9] = system: Streptococcus sp. 'group A'; experiment: Streptococcus pyogenes SK(-)GAS viability under kanamycin – luminescence, BacTiterGlo, confirmation, counter-screen for streptokinase expression inhibitor project, dose response (AID 1900); assay type: functional, organism-based
[10] = target: T4, Short transient receptor potential channel 4 (Mus musculus, UniProt Q9QUQ5); experiment: calcium entry via TRPC4 opening agents – cell-based, HEK293 TRPC4/mu-opioid, Fluo-4 calcium, dose response (AID 434937); assay type: functional
T4 sequence (Q9QUQ5 whole entry): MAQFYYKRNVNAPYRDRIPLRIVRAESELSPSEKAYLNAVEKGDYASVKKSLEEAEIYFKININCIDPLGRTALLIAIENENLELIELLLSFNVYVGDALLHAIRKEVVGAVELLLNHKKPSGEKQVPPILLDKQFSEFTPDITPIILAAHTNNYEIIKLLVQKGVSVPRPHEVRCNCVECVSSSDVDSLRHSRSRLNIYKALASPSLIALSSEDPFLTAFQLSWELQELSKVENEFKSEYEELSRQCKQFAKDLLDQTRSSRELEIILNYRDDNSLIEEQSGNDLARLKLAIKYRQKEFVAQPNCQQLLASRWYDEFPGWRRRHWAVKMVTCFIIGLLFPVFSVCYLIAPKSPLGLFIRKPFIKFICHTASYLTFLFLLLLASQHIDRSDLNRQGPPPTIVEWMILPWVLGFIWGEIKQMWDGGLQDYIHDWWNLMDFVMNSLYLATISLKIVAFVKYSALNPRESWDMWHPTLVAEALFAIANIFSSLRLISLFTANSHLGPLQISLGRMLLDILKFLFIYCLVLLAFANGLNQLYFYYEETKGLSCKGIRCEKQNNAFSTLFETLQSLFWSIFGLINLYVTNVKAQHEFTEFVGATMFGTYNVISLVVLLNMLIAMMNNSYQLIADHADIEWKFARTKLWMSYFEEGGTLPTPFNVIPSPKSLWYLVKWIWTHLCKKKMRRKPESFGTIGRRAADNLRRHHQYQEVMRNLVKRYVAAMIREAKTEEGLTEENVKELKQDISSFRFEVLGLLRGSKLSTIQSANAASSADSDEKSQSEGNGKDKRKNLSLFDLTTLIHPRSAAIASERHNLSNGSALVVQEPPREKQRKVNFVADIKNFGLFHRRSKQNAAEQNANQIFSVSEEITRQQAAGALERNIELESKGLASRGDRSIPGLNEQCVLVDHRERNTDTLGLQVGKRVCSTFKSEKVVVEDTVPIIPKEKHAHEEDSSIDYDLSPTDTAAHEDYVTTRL

[11] = system: HEK293; experiment: NOD2 signaling inhibitors in MDP-stimulated cells, cell-based, uHTS, luminescence (AID 2001); assay type: functional; settings: Homo sapiens
[12] = system: HEK293; experiment: cells; assay type: functional, cell-based; settings: Homo sapiens
[13] = system: Streptococcus; experiment: GAS UMAA2166 growth inhibition – luminescence, BacTiterGlo, counter-screen for streptokinase expression inhibitor project, dose response (AID 1915); assay type: functional, organism-based;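 further: potency for reduction of bacterial viability or growth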
[14] = system: HEK293; experiment: cells; assay type: functional, cell-based; settings: Homo sapiens; remark: listed apart in the source
[15] = P. falciparum Dd2 growth inhibitors, dose response, SYBR Green, cherry-picked samples (AID 1159567); assay type: functional, cell-based
[16] = Dd2 malaria parasite growth inhibition potency – SYBR Green, dry powder samples, dose response (AID 1159566); assay type: functional, cell-based;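 further: potency for growth inhibition with lower SYBR green DNA signal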
[17] = growth inhibition of PfATP4-mutant resistant parasites – NITD609-resistant line, SYBR Green, dry powder, dose response (AID 1159571); assay type: functional, cell-based;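 further: parasites synchronized at ring stage by sorbitol before testing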
[18] = growth inhibition of yeast DHODH-expressing 3D7 parasites – SYBR Green, dry powder samples, dose response (AID 1159570); assay type: functional, cell-based;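 further: parasite growth measured after 72 hours of compound exposure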

SMILES: CCN(CC)CCC(c1ccc2c(c1)OCO2)c1c(OC)cc(OC)c2c(-c3ccccc3)cc(=O)oc12 (centres undefined)
- IC50 [1]: 18.2 µM (active)

SMILES: COc1ccc(-c2csc3ncnc(N4CCN(CCO)CC4)c23)cc1
- IC50 [1]: 13.8 µM (active)

SMILES: Cc1ccc(S(=O)(=O)N2CCN(Cc3cc(C(C)C)ccc3O)CC2)cc1
- IC50 [2]: > 50 µM (inactive)

SMILES: CC(NC(=O)c1cccc(S(=O)(=O)N2CCN(C)CC2)c1)C1CC2CCC1C2 (centres undefined)
- IC50 [1]: 13.2 µM (active)

SMILES: O=C(NCCN1CCc2ccccc2C1)C1CC(=O)N(C2CCCC2)C1 (centres undefined)
- IC50 [2]: > 50 µM (inactive)

SMILES: COc1ccc(Br)cc1S(=O)(=O)Nc1ccon1
- IC50 [3]: > 100 µM (inactive)
- IC50 [4]: > 100 µM (not active)

SMILES: Cc1nnc(NC(=O)c2c(F)c(F)c(F)c(F)c2F)s1
- IC50 [2]: > 50 µM (inactive)

SMILES: CC1CCCCC1N=C(S)Nc1ccc(SC(F)F)cc1 (centres undefined)
- EC50 [5]: 17.5 µM (active)
- EC50 [6]: 19 µM (active)
- IC50 [1]: 7.63 µM (active)

SMILES: COc1ccc(OCCOC(=O)c2cc(S(=O)(=O)N3CCOCC3)c(Cl)cc2Cl)cc1
- CC50 [7]: 23.9 µM (active)

SMILES: O=c1c2cc(Br)ccc2nc(-c2ccc(Cl)cc2)n1O
- EC50 [8]: 6.02 µM (active)
- EC50 [9]: 1.24 µM (active)
- EC50 [10]: 6.68 µM (active)
- IC50 [11]: 14.2 µM (inactive)
- IC50 [12]: > 20 µM (inactive)
- EC50 [13]: 2.6 µM (active)
- IC50 [14]: > 20 µM (inactive)
- IC50 [1]: 5.01 µM (active)

SMILES: NNC(=O)CN1C(=O)CN=C(c2ccccc2)c2cc(Br)ccc21
- IC50 [2]: > 50 µM (inactive)

SMILES: CCOC(=O)Nc1cc(C)c(Cl)cc1OC
- CC50 [7]: > 40 µM (active)

SMILES: COC(=O)c1ccc(OC)c(S(=O)(=O)Nc2cnc3ccccc3c2)c1
- IC50 [3]: > 10 µM (inactive)
- IC50 [4]: > 10 µM (inconclusive)

SMILES: CN(C)/C=C1\C=C(c2ccccc2)OC1=O
- IC50 [2]: > 50 µM (inactive)

SMILES: C[C@@H]1CN([C@@H](C)CO)C(=O)c2cccc(NC(=O)Nc3ccccc3)c2O[C@@H]1CN(C)C(=O)Nc1ccccc1
- AC50 [15]: 0.37 µM (active)
- AC50 [16]: 0.204 µM (active)
- AC50 [17]: 0.216 µM (active)
- AC50 [18]: 1.06 µM (active)

Source: ChEMBL document CHEMBL1201862, “PubChem BioAssay data set” (2004)
